Numbers after ± are expanded uncertainties.
Assay: molar enthalpy of vaporization or sublimation
Conditions: 298.15 K; Liquid; calvet microcalorimetry

Row | SMILES | molar enthalpy
1 | C1COCCN1 [tetrahydro-1,4-oxazine] | 11.1 ± 0.191 kcal/mol
2 | C1CSCCN1 [thiomorpholine] | 12.9 ± 0.717 kcal/mol
